Test system: Human STING
Assay: STING reporter assay (luciferase) in THP1-Dual KO-IFNAR2 cells activated with 2'3'cGAMP
Type: cell-based
Conditions: 15 μM 2'3'cGAMP
Method: STING Pathway Modulation by the Compounds Described Herein was Measured Using THP1-Dual™ Cells (KO-IFNAR2).
THP1-Dual™ KO-IFNAR2 Cells (obtained from invivogen) were maintained in RPMI, 10% FCS, 5 ml P/S, 2 mM L-glut, 10 mM Hepes, and 1 mM sodium pyruvate. Compounds were spotted in empty 384 well tissue culture plates (Greiner 781182) by Echo for a final concentration of 0.0017-100 μM. Cells were plated into the TC plates at […], 2×10E6 cells/mL. For activation with STING ligand, 2′3′cGAMP (MW 718.38, obtained from Invivogen), was prepared in Optimem media.
The following solutions were prepared for each 1×384 plate: • Solution A: 2 mL Optimem with one of the following stimuli: • 60 uL of 10 mM 2′3′cGAMP ->150 μM stock • Solution B: 2 mL Optimem with 60 μL Lipofectamine 2000->Incubate 5 min at RT
2 mL of solution A and 2 ml Solution B was mixed and incubated for 20 min at room temperature (RT). 20 μL of transfection solution (A+B) was added on top of the plated cells, with a final 2′3′cGAMP concentration of 15 μM. The plates were then centrifuged immediately at 340 g for 1 minute, after which they were incubated at 37° C., 5% CO2, >98% humidity for 24h. Luciferase reporter activity was then measured. EC50 values were calculated by using standard methods known in the art.
Luciferase reporter assay: 10 μL of supernatant from the assay was transferred to white 384-plate with flat bottom and squared wells. One pouch of QUANTI-Luc™ Plus was dissolved in 25 mL of water. 100 μL of QLC Stabilizer per 25 mL of QUANTI-Luc™ Plus solution was added. 50 μL of QUANTI-Luc™ Plus/QLC solution per well was then added. Luminescence was measured on a Platereader (e.g., Spectramax I3X (Molecular Devices GF3637001)).
Luciferase reporter activity was then measured. EC50 or IC50 values were calculated by using standard methods known in the art.

[1] = Homo sapiens, THP1-Dual, 24 h, class symbols
[2] = Homo sapiens, THP1-Dual, 24 h, given as numeric bound

Structure (SMILES): NS(=O)(=Nc1c[nH]c2cc(F)c(F)cc12)c1ccc(C(F)(F)F)cc1 (racemic) [Compound 2a]
- IC50 (24h, class symbols): 0.2 to 1 µM

Structure (SMILES): NS(=O)(=Nc1c[nH]c2cc(F)c(F)cc12)c1ccc(C(F)(F)F)cc1 (racemic) [Compound 2b]
- IC50 (24h, class symbols): 1 to 5 µM

Structure (SMILES): N#Cc1ccc2[nH]cc(N=S(N)(=O)c3ccc(C(F)(F)F)cc3)c2c1 (racemic) [Compound 5a]
- IC50 [1]: 5 to 100 µM

Structure (SMILES): NS(=O)(=Nc1c[nH]c2ccccc12)c1ccc(F)cc1 (racemic) [Compound 108a]
- IC50 [1]: 5 to 100 µM

Structure (SMILES): NS(=O)(=Nc1c[nH]c2ccccc12)c1ccc(Cl)cc1 (racemic) [Compound 109a]
- IC50 [1]: 1 to 5 µM

Structure (SMILES): Cc1ccccc1S(N)(=O)=Nc1c[nH]c2ccccc12 (racemic) [Compound 110a]
- IC50 (24h, class symbols): 5 to 100 µM

Structure (SMILES): Cc1ccccc1S(N)(=O)=Nc1c[nH]c2ccccc12 (racemic) [Compound 110b]
- IC50 (24h, class symbols): 1 to 5 µM

Structure (SMILES): Cc1ccc(S(N)(=O)=Nc2c[nH]c3ccccc23)cc1 (racemic) [Compound 111a]
- IC50 (24h, class symbols): 1 to 5 µM

Structure (SMILES): Cc1ccc(S(N)(=O)=Nc2c[nH]c3ccccc23)cc1 (racemic) [Compound 111b]
- IC50 (24h, class symbols): 5 to 100 µM

Structure (SMILES): CCCCc1ccc(S(N)(=O)=Nc2c[nH]nc2-c2ccccc2)cc1 (racemic) [Compound 113a]
- IC50 [1]: 5 to 100 µM

Structure (SMILES): N#Cc1cnc2[nH]cc(N=S(N)(=O)c3ccc(C(F)(F)F)cc3)c2c1 (racemic) [Compound 114a]
- IC50 [1]: 5 to 100 µM

Structure (SMILES): N#Cc1cnc2[nH]cc(N=S(N)(=O)c3ccc(C(F)(F)F)cc3)c2c1 (racemic) [Compound 114b]
- IC50 [2]: ≥ 100 µM

Structure (SMILES): N#Cc1ccc2[nH]cc(N=S(N)(=O)c3ccc(C4CC4)cc3)c2c1 (racemic) [Compound 115a]
- IC50 [1]: 5 to 100 µM

Structure (SMILES): CCCCc1ccc(S(N)(=O)=Nc2c[nH]c3ncc(F)cc23)cc1 (racemic) [Compound 116]
- IC50 [1]: 5 to 100 µM

Structure (SMILES): NS(=O)(=Nc1c[nH]c2ncc(F)cc12)c1ccc(C(F)(F)F)cc1 (racemic) [Compound 117a]
- IC50 [1]: 5 to 100 µM

Structure (SMILES): NS(=O)(=Nc1c[nH]nc1-c1ccccc1)c1ccc(C(F)(F)F)cc1 (racemic) [Compound 119a]
- IC50 [2]: ≥ 100 µM

Structure (SMILES): N[S@](=O)(=Nc1c[nH]c2ccccc12)c1ccc(C(F)(F)F)cc1 (single isomer, unassigned) [Compound 1a, (S or R)—N-(1H-indol-3-yl)-4-(trifluoromethyl)benzenesulfonimidamide]
- IC50 [1]: 1 to 5 µM

Structure (SMILES): N[S@@](=O)(=Nc1c[nH]c2ccccc12)c1ccc(C(F)(F)F)cc1 (single isomer, unassigned) [Compound 1b, (R or S)—N-(1H-indol-3-yl)-4-(trifluoromethyl)benzenesulfonimidamide]
- IC50 [1]: 0.2 to 1 µM

Structure (SMILES): NS(=O)(=Nc1c[nH]c2ccccc12)c1ccc(C(F)(F)F)cc1 (stereo not drawn) [Compound 1, N′-(1H-indol-3-yl)-4-(trifluoromethyl)benzenesulfonimidamide]
- IC50 [1]: 0.2 to 1 µM

Structure (SMILES): NS(=O)(=Nc1c[nH]c2cc(F)c(F)cc12)c1ccc(C(F)(F)F)cc1 (stereo not drawn) [Compound 2]
- IC50 [1]: 1 to 5 µM

Structure (SMILES): CN(C)S(=O)(=Nc1c[nH]c2ccccc12)c1ccc(C(F)(F)F)cc1 (stereo not drawn) [Compound 36, N′-(1H-indol-3-yl)-N,N-dimethyl-4-(trifluoromethyl)benzenesulfonimidamide]
- IC50 [1]: 5 to 100 µM

Structure (SMILES): CCCCc1ccc(S(=N)(=O)Nc2ccc3[nH]ccc3c2)cc1 (stereo not drawn) [Compound 53]
- IC50 [1]: 5 to 100 µM

Structure (SMILES): CCCCc1ccc(S(=N)(=O)Nc2ccc3cc[nH]c3c2)cc1 (stereo not drawn) [Compound 101]
- IC50 [1]: 5 to 100 µM

Structure (SMILES): CC(C)OC(=O)NS(=O)(=Nc1c[nH]c2ccccc12)c1ccc(C(F)(F)F)cc1 (stereo not drawn) [Compound 102]
- IC50 [1]: 5 to 100 µM

Structure (SMILES): CCOC(=O)NS(=O)(=Nc1c[nH]c2ccccc12)c1ccc(C(F)(F)F)cc1 (stereo not drawn) [Compound 103]
- IC50 [1]: 5 to 100 µM

Structure (SMILES): CS(=O)(=O)n1cc(N=S(N)(=O)c2ccc(C(F)(F)F)cc2)c2ccccc21 (stereo not drawn) [Compound 104]
- IC50 [1]: 5 to 100 µM

Structure (SMILES): CNS(=O)(=Nc1cn(C)c2ccccc12)c1ccc(C(F)(F)F)cc1 (stereo not drawn) [Compound 105, N-methyl-N′-(1-methyl-1H-indol-3-yl)-4-(trifluoromethyl)benzenesulfonimidamide]
- IC50 [1]: 5 to 100 µM

Structure (SMILES): Cc1cccc(S(N)(=O)=Nc2c[nH]c3ccccc23)c1 (stereo not drawn) [Compound 106]
- IC50 [1]: 5 to 100 µM

Structure (SMILES): COC(=O)NS(=O)(=Nc1c[nH]c2ccccc12)c1ccc(C(F)(F)F)cc1 (stereo not drawn) [Compound 107, methyl (N-(1H-indol-3-yl)-4-(trifluoromethyl)phenylsulfonimidoyl)carbamate]
- IC50 [1]: 5 to 100 µM

Structure (SMILES): NS(=O)(=Nc1c[nH]c2ccccc12)c1ccc(F)cc1 (stereo not drawn) [Compound 108]
- IC50 [1]: 5 to 100 µM

Structure (SMILES): NS(=O)(=Nc1c[nH]c2ccccc12)c1ccc(Cl)cc1 (stereo not drawn) [Compound 109]
- IC50 [1]: 1 to 5 µM

Structure (SMILES): Cc1ccccc1S(N)(=O)=Nc1c[nH]c2ccccc12 (stereo not drawn) [Compound 110]
- IC50 [1]: 5 to 100 µM

Structure (SMILES): Cc1ccc(S(N)(=O)=Nc2c[nH]c3ccccc23)cc1 (stereo not drawn) [Compound 111]
- IC50 [1]: 5 to 100 µM

Structure (SMILES): CNS(=O)(=Nc1c[nH]c2ccccc12)c1ccc(C(F)(F)F)cc1 (stereo not drawn) [Compound 112, N′-(1H-indol-3-yl)-N-methyl-4-(trifluoromethyl)benzenesulfonimidamide]
- IC50 [1]: 5 to 100 µM

Structure (SMILES): CCCCc1ccc(S(N)(=O)=Nc2c[nH]nc2-c2ccccc2)cc1 (stereo not drawn) [Compound 113]
- IC50 [1]: 5 to 100 µM

Structure (SMILES): N#Cc1cnc2[nH]cc(N=S(N)(=O)c3ccc(C(F)(F)F)cc3)c2c1 (stereo not drawn) [Compound 114]
- IC50 [1]: 5 to 100 µM

Structure (SMILES): N#Cc1ccc2[nH]cc(N=S(N)(=O)c3ccc(C4CC4)cc3)c2c1 (stereo not drawn) [Compound 115]
- IC50 [1]: 5 to 100 µM

Structure (SMILES): NS(=O)(=Nc1c[nH]c2ncc(F)cc12)c1ccc(C(F)(F)F)cc1 (stereo not drawn) [Compound 117]
- IC50 [1]: 5 to 100 µM

Structure (SMILES): NS(=O)(=Nc1c[nH]nc1-c1ccccc1)c1ccc(C(F)(F)F)cc1 (stereo not drawn) [Compound 119]
- IC50 [2]: ≥ 100 µM

From patent US20230047905A1, “COMPOUNDS AND COMPOSITIONS FOR TREATING CONDITIONS ASSOCIATED WITH STING ACTIVITY” (IFM Due, Inc., priority 2018, published 2023)
